Results: paper PMC6642186, “Molecular mechanism of setron-mediated inhibition of full-length 5-HT3A receptor” (Nature Communications, 2019)
Numbering of substitutions follows the chain as printed.

Experiments:
[1] = tertiary ammonium in the bicyclic ring; no reference given; cited from earlier work
[2] = test system: α7nAChR; set-up: method as in PMID 11212100, PMID 15781147; conditions: cited from earlier work
[3] = biological target: T1, wild-type (WT) 5-HT3AR (Mus musculus, UniProt P23979); test: Serotonin dose response by TEVC recordings in oocytes; format: cell-based; conditions: for Normalized current: wt
T1 construct: Full-length 5-HT3AR messenger RNA (mRNA) was injected into oocytes; expressed in transfected cells; host or cells: Xenopus laevis oocytes (mRNA injection, pTLN vector)
T1 sequence (P23979 24-483 isoform P23979-2 limits assumed): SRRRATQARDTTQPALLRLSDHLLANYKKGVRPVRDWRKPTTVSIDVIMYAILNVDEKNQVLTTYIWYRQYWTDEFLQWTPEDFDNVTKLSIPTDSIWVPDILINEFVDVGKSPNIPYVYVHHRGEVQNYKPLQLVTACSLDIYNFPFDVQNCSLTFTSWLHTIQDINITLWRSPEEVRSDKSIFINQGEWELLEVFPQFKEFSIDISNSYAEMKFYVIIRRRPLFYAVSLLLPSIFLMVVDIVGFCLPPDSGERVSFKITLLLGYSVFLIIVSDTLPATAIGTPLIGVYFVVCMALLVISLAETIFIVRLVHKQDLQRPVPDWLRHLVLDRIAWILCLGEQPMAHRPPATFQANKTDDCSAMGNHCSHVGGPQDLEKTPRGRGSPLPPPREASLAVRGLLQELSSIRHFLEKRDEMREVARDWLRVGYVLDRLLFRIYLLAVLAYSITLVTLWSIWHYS
Description: (§1) Data are shown as mean ± s.d. (n is indicated within parentheses). Significance at p = 0.001 (***) and […] calculated by two-sample t test for WT and mutants. Source data are provided as a Source Data file
(§2) The gene encoding mouse 5-HT3AR (purchased from GenScript) was inserted into a Xenopus laevis expression vector (pTLN) using cloning primers shown in Supplementary Table 1. DNA linearization was carried out with the Mlu1 restriction enzyme overnight at 37 °C. mRNA synthesis was done using the mMessage mMachine Kit (Ambion) as per the manufacturer’s instructions and purification was done with RNAeasy Kit (Qiagen). mRNA for studied mutants was prepared in the same way. Three to ten nanograms of mRNA was injected into X. laevis oocytes (stages V–VI) and experiments were performed 2–5 days after injection. For control experiments to verify that no endogenous currents were present, oocytes were injected with the same volume of water. W.F. Boron kindly provided oocytes used in this study. Female X. laevis were purchased from Nasco. Animal experimental procedures were approved by Institutional Animal Care and Use Committee (IACUC) of Case Western Reserve University. […] Oocytes were clamped at a holding potential of −60 mV. Solutions were changed using a syringe pump perfusion system flowing at a rate of 6 ml/min.

[4] = biological target: T2, 5-HT3AR R65A mutant (Mus musculus, UniProt P23979, R92A); test: as above; format: cell-based
T2 construct: Full-length 5-HT3AR messenger RNA (mRNA) was injected into oocytes; expressed in transfected cells; host or cells: Xenopus laevis oocytes (mRNA injection, pTLN vector)
T2 sequence (P23979 24-483 isoform P23979-2 R92A): T1 sequence (P23979 24-483 isoform P23979-2 limits assumed) with R69A
Description: as §1, §2

[5] = biological target: T3, 5-HT3AR Y126F mutant (Mus musculus, UniProt P23979, Y153F); test: as above; format: cell-based
T3 construct: Full-length 5-HT3AR messenger RNA (mRNA) was injected into oocytes; expressed in transfected cells; host or cells: Xenopus laevis oocytes (mRNA injection, pTLN vector)
T3 sequence (P23979 24-483 isoform P23979-2 Y153F): T1 sequence (P23979 24-483 isoform P23979-2 limits assumed) with Y130F
Description: as §1, §2

[6] = biological target: T4, 5-HT3AR Y207F mutant (Mus musculus, UniProt P23979, Y234F); test: as above; format: cell-based
T4 construct: Full-length 5-HT3AR messenger RNA (mRNA) was injected into oocytes; expressed in transfected cells; host or cells: Xenopus laevis oocytes (mRNA injection, pTLN vector)
T4 sequence (P23979 24-483 isoform P23979-2 Y234F): T1 sequence (P23979 24-483 isoform P23979-2 limits assumed) with Y211F
Description: as §1, §2

[7] = biological target: T5, 5-HT3AR W156Y mutant (Mus musculus, UniProt P23979, W183Y); test: as above; format: cell-based
T5 construct: Full-length 5-HT3AR messenger RNA (mRNA) was injected into oocytes; expressed in transfected cells; host or cells: Xenopus laevis oocytes (mRNA injection, pTLN vector)
T5 sequence (P23979 24-483 isoform P23979-2 W183Y): T1 sequence (P23979 24-483 isoform P23979-2 limits assumed) with W160Y
Description: as §1, §2

[8] = biological target: T6, 5-HT3AR W63Y mutant (Mus musculus, UniProt P23979, W90Y); test: as above; format: cell-based
T6 construct: Full-length 5-HT3AR messenger RNA (mRNA) was injected into oocytes; expressed in transfected cells; host or cells: Xenopus laevis oocytes (mRNA injection, pTLN vector)
T6 sequence (P23979 24-483 isoform P23979-2 W90Y): T1 sequence (P23979 24-483 isoform P23979-2 limits assumed) with W67Y
Description: as §1, §2

[9] = test system: human 5-HT3AR with mutations at the Arg65 position; set-up: method as in PMID 28137449; conditions: cited from earlier work
[10] = serotonin dose response, TEVC at −60 mV, oocytes

## CN1C2CCCC1CC(NC(=O)c1nn(C)c3ccccc13)C2 (stereo not shown) [granisetron]
[1]
  pKa: 9.6
[2]
  binding to α7nAChR: does not bind

## NCCc1c[nH]c2ccc(O)cc12 [serotonin]
[3]; serotonin dose response, TEVC at −60 mV, oocytes, WT
  Hill coefficient (nH): 2.3 ± 0.17
[3]; 1 microM serotonin
  Normalized current: 0.091
[3]; 2 microM serotonin
  Normalized current: 0.3528
[3]; 3 microM serotonin
  Normalized current: 0.5303
[3]; 5 microM serotonin
  Normalized current: 0.8338
[3]; 10 microM serotonin
  Normalized current: 0.9464
[3]; 30 microM serotonin
  Normalized current: 1
[4]; 2.5 microM serotonin
  Normalized current: 0.00482
[4]; 5 microM serotonin
  Normalized current: 0.04808
[4]; 15 microM serotonin
  Normalized current: 0.6252
[4]; 20 microM serotonin
  Normalized current: 0.7837
[4]; 100 microM serotonin
  Normalized current: 1
[4]; [10]
  Hill coefficient (nH): 4.4 ± 0.59
[5]; 10 microM serotonin
  Normalized current: 0.04616
[5]; 30 microM serotonin
  Normalized current: 0.2137
[5]; 50 microM serotonin
  Normalized current: 0.6516
[5]; 100 microM serotonin
  Normalized current: 0.7792
[5]; 250 microM serotonin
  Normalized current: 0.904
[5]; 500 microM serotonin
  Normalized current: 0.985
[5]; 1000 microM serotonin
  Normalized current: 1
[5]; [10]
  Hill coefficient (nH): 2.6 ± 0.71
[6]; 5 microM serotonin
  Normalized current: 0.02946
[6]; 10 microM serotonin
  Normalized current: 0.2522
[6]; 30 microM serotonin
  Normalized current: 0.6081
[6]; 50 microM serotonin
  Normalized current: 0.8641
[6]; 100 microM serotonin
  Normalized current: 0.8795
[6]; 250 microM serotonin
  Normalized current: 0.9933
[6]; 500 microM serotonin
  Normalized current: 0.9971
[6]; 1000 microM serotonin
  Normalized current: 1
[6]; [10]
  Hill coefficient (nH): 1.9 ± 0.27
[7]; 20 microM serotonin
  Normalized current: 0.00976
[7]; 50 microM serotonin
  Normalized current: 0.04708
[7]; 100 microM serotonin
  Normalized current: 0.2083
[7]; 200 microM serotonin
  Normalized current: 0.2793
[7]; 500 microM serotonin
  Normalized current: 0.6574
[7]; 1000 microM serotonin
  Normalized current: 0.8828
[7]; 2000 microM serotonin
  Normalized current: 1
[7]; [10]
  Hill coefficient (nH): 1.58 ± 0.24
[8]; 2 microM serotonin
  Normalized current: 0.00868
[8]; 5 microM serotonin
  Normalized current: 0.07991
[8]; 10 microM serotonin
  Normalized current: 0.4765
[8]; 15 microM serotonin
  Normalized current: 0.7556
[8]; 30 microM serotonin
  Normalized current: 0.8311
[8]; 100 microM serotonin
  Normalized current: 1
[8]; [10]
  Hill coefficient (nH): 3.1 ± 0.72

## CN1[C@@H]2CC[C@H]1C[C@@H](OC(=O)c1c[nH]c3ccccc13)C2 [tropisetron]
[9]
  effect of mutations at the Arg65 position on binding: only reduced
[2]
  binding to α7nAChR: bind to α7nAChR leading to channel activation
